Results published in patent US20070213339A1 (Bayer Pharmaceuticals Corporation, priority 2004, published 2007).

tested on: Colo205 human colon carcinoma cell line; experiment: In vitro tumor cell proliferation assay (MTS, CellTiter 96 Aqueous One Solution); assay type: cell-based; conditions: COLO 205, Colo205 cells, 72 hours compound exposure, MTS absorbance at 490 nm, read-out: IC50 (concentration of test compound required to inhibit proliferation of 50% of the cells)
In short: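 Colo205 cells seeded at 2000 cells/well in RPMI-1640 with 10% serum, exposed to compound for 72 h at 37 °C, 5% CO2, in a 5-point dose-response up to 10-20 μM. Viability read by MTS absorbance at 490 nm; IC50 from background-corrected percent inhibition by linear regression.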

| SMILES | IC50 [µM] |
| --- | --- |
| COc1c(N2CCN(c3ccc(C(C)=O)cc3)CC2)c(F)cc2c(=O)c(C(=O)O)cn(-c3ccc(CN(C)C)cc3)c12 [Example 103, 7-[4-(4-acetylphenyl)piperazin-1-yl]-1-{4-[(dimethylamino)methyl]phenyl}-6-fluoro-8-methoxy-4-oxo-1,4-dihydroquinoline-3-carboxylic acid] | 0.5 to 2 |
| COc1c(N2CCN(c3ccccc3[N+](=O)[O-])CC2)c(F)cc2c(=O)c(C(=O)O)cn(-c3ccc(CN4CCCCC4)cc3)c12 [Example 91, 6-fluoro-8-methoxy-7-[4-(2-nitrophenyl)-piperazin-1-yl]-4-oxo-1-[4-(piperidin-1-ylmethyl)phenyl]-1,4-dihydroquinoline-3-carboxylic acid] | 0.5 to 2 |
| O=C(O)c1cn(-c2cccc(CN3CCCCC3)c2)c2c(OC(F)(F)F)c(N3CCN(c4ccccc4F)CC3)c(F)cc2c1=O [Example 144, 6-fluoro-7-[4-(2-fluorophenyl)piperazin-1-yl]-4-oxo-1-[3-(piperidin-1-ylmethyl)phenyl]-8-(trifluoromethoxy)-1,4-dihydroquinoline-3-carboxylic acid] | 2 to 20 |
| NC(=O)c1ccccc1N1CCN(c2c(F)cc3c(=O)c(C(=O)O)cn(-c4ccc(CN5CCCC5)cc4)c3c2Cl)CC1 [Example 10, 7-{4-[2-(aminocarbonyl)phenyl]piperazin-1-yl}-8-chloro-6-fluoro-4-oxo-1-[4-(pyrrolidin-1-ylmethyl)phenyl]-1,4-dihydroquinoline-3-carboxylic acid] | 2 to 20 |
| COc1c(N2CCN(c3ccc([N+](=O)[O-])cc3F)CC2)c(F)cc2c(=O)c(C(=O)O)cn(-c3ccc(CN4CCCC4)cc3)c12 [Example 87, 6-fluoro-7-[4-(2-fluoro-4-nitrophenyl)piperazin-1-yl]-8-methoxy-4-oxo-1-[4-(pyrrolidin-1-ylmethyl)phenyl]-1,4-dihydroquinoline-3-carboxylic acid] | 0.5 to 2 |
| O=C(O)c1cn(-c2cccc(CN3CCCCC3)c2)c2c(Cl)c(N3CCN(c4ccccn4)CC3)c(F)cc2c1=O [Example 65, 8-chloro-6-fluoro-4-oxo-1-[3-(piperidin-1-yl-methyl)phenyl]-7-(4-pyridin-2-ylpiperazin-1-yl)-1,4-dihydroquinoline-3-carboxylic acid] | 2 to 20 |
| COC[C@H]1CCCN1Cc1ccc(-n2cc(C(=O)O)c(=O)c3cc(F)c(N4CCN(c5ncccn5)CC4)c(Cl)c32)cc1 [Example 22, 8-chloro-6-fluoro-1-(4-{[(2R)-2-(methoxy-methyl)pyrrolidin-1-yl]methyl}phenyl)-4-oxo-7-(4-pyrimidin-2-ylpiperazin-1-yl)-1,4-dihydroquinoline-3-carboxylic acid] | 0.5 to 2 |
| O=C(O)c1cn(-c2cccc(CN3CCCCC3)c2)c2c(OC(F)(F)F)c(N3CCN(c4ncccn4)CC3)c(F)cc2c1=O [Example 143, 6-fluoro-4-oxo-1-[3-(piperidin-1-yl-methyl)phenyl]-7-(4-pyrimidin-2-ylpiperazin-1-yl)-8-(trifluoromethoxy)-1,4-dihydroquinoline-3-carboxylic acid] | 0.5 to 2 |
| CN(C)CCc1ccc(-n2cc(C(=O)O)c(=O)c3cc(F)c(N4CCN(c5ccc(Cl)cc5)CC4)c(Cl)c32)cc1 [Example 70, 8-chloro-7-[4-(4-chlorophenyl)piperazin-1-yl]-1-{4-[2-(dimethylamino)ethyl]phenyl}-6-fluoro-4-oxo-1,4-dihydroquinoline-3-carboxylic acid] | 0.5 to 2 |
| O=C(O)c1cn(-c2cccc(CN3CCCCC3)c2)c2c(Cl)c(N3CCN(c4cccc(Cl)c4)CC3)c(F)cc2c1=O [Example 68, 8-chloro-7-[4-(3-chlorophenyl)piperazin-1-yl]-6-fluoro-4-oxo-1-[3-(piperidin-1-ylmethyl)phenyl]-1,4-dihydroquinoline-3-carboxylic acid] | 2 to 20 |
| CCOc1ccc(N2CCN(c3c(F)cc4c(=O)c(C(=O)O)cn(-c5ccc(CN6CCCC6)cc5)c4c3Cl)CC2)cc1 [Example 12, 8-chloro-7-[4-(4-ethoxyphenyl)piperazin-1-yl]-6-fluoro-4-oxo-1-[4-(pyrrolidin-1-ylmethyl)phenyl]-1,4-dihydroquinoline-3-carboxylic acid] | 2 to 20 |

Further lines, results first:

| IC50 [µM] | SMILES |
| --- | --- |
| < 0.5 | C[C@H]1CCCCN1Cc1ccc(-n2cc(C(=O)O)c(=O)c3cc(F)c(N4CCN(c5ncccn5)CC4)c(OC(F)(F)F)c32)cc1 [Example 139, 6-fluoro-1-(4-{[(2S)-2-methylpiperidin-1-yl]methyl}phenyl)-4-oxo-7-(4-pyrimidin-2-ylpiperazin-1-yl)-8-(trifluoromethoxy)-1,4-dihydroquinoline-3-carboxylic acid] |
| < 0.5 | O=C(O)c1cn(-c2ccc(CN3CCCC3)c(F)c2)c2c(Cl)c(N3CCN(c4ccc(Cl)cc4)CC3)c(F)cc2c1=O [Example 187, 8-chloro-7-[4-(4-chlorophenyl)-piperazine-1-yl]-6-fluoro-1-(3-fluoro-4-pyrrolidin-1-ylmethyl-phenyl)-4-oxo-1,4-dihydroquinoline-3-carboxylic acid] |
| < 0.5 | O=C(O)c1cn(-c2ccc(CNC3CCCC3)cc2)c2c(OC(F)(F)Cl)c(N3CCN(c4ccccn4)CC3)c(F)cc2c1=O [Example 180, 8-(chloro-difluoromethoxy)-1-(4-cyclopentylaminomethyl-phenyl)-6-fluoro-4-oxo-7-(4-pyridin-2-yl-piperazin-1-yl)-1,4-dihydroquinoline-3-carboxylic acid] |
| < 0.5 | COc1c(N2CCN(c3ccccc3C#N)CC2)c(F)cc2c(=O)c(C(=O)O)cn(-c3ccc(CN4CCCCC4)cc3)c12 [Example 89, 7-[4-(2-cyanophenyl)piperazin-1-yl]-6-fluoro-8-methoxy-4-oxo-1-[4-(piperidin-1-ylmethyl)phenyl]-1,4-dihydroquinoline-3-carboxylic acid] |
| < 0.5 | COc1cc(CNC2CCC2)ccc1-n1cc(C(=O)O)c(=O)c2cc(F)c(N3CCN(c4ccc(F)cc4)CC3)c(Cl)c21 [Example 178, 8-chloro-1-(4-cyclobutylaminomethyl-2-methoxyphenyl)-6-fluoro-7-[4-(4-fluorophenyl)-piperazine-1-yl]-4-oxo-1,4-dihydroquinoline-3-carboxylic acid] |
| < 0.5 | O=C(O)c1cn(-c2ccc(CN3CCCC3)cc2F)c2c(Cl)c(N3CCN(c4ncccn4)CC3)c(F)cc2c1=O [Example 40, 8-chloro-6-fluoro-1-[2-fluoro-4-(pyrrolidin-1-ylmethyl)phenyl]-4-oxo-7-(4-pyrimidin-2-ylpiperazin-1-yl)-1,4-dihydroquinoline-3-carboxylic acid] |
| < 0.5 | Cc1cccc(N2CCN(c3c(F)cc4c(=O)c(C(=O)O)cn(-c5ccc(CN(C)C)cc5)c4c3OC(F)(F)F)CC2)n1 [Example 127, 1-{4-[(dimethylamino)methyl]phenyl}-6-fluoro-7-[4-(6-methylpyridin-2-yl)piperazin-1-yl]-4-oxo-8-(trifluoromethoxy)-1,4-dihydroquinoline-3-carboxylic acid] |
| < 0.5 | COc1c(N2CCN(c3ccccc3)CC2)c(F)cc2c(=O)c(C(=O)O)cn(-c3ccc(CN(C)C)cc3)c12 [Example 97, 1-{4-[(dimethylamino)methyl]phenyl}-6-fluoro-8-methoxy-4-oxo-7-(4-phenylpiperazin-1-yl)-1,4-dihydroquinoline-3-carboxylic acid] |
| < 0.5 | CN(C)CCc1ccc(-n2cc(C(=O)O)c(=O)c3cc(F)c(N4CCN(c5ccccn5)CC4)c(Cl)c32)cc1 [Example 69, 8-chloro-1-{4-[2-(dimethylamino)ethyl]phenyl}-6-fluoro-4-oxo-7-(4-pyridin-2-ylpiperazin-1-yl)-1,4-dihydroquinoline-3-carboxylic acid] |
| < 0.5 | COc1c(N2CCN(c3ccccc3SC)CC2)c(F)cc2c(=O)c(C(=O)O)cn(-c3ccc(CN4CCCC4)cc3)c12 [Example 88, 6-fluoro-8-methoxy-7-{4-[2-(methylthio)phenyl]-piperazin-1-yl}-4-oxo-1-[4-(pyrrolidin-1-ylmethyl)phenyl]-1,4-dihydroquinoline-3-carboxylic acid] |
| < 0.5 | COc1c(N2CCN(c3ncccn3)CC2)c(F)cc2c(=O)c(C(=O)O)cn(-c3ccc(CN4CCCCC4)cc3)c12 [Example 193, 6-fluoro-8-methoxy-4-oxo-1-(4-piperidin-1-ylmethyl-phenyl)-7-(4-pyrimidine-2-yl-piperazine-1-yl]-1,4-dihydroquinoline-3-carboxylic acid] |
| < 0.5 | CCN(CC)Cc1ccc(-n2cc(C(=O)O)c(=O)c3cc(F)c(N4CCN(c5ncccn5)CC4)c(OC)c32)cc1 [Example 106, 1-{4-[(diethylamino)methyl]phenyl}-6-fluoro-8-methoxy-4-oxo-7-(4-pyrimidin-2-ylpiperazin-1-yl)-1,4-dihydroquinoline-3-carboxylic acid] |
| < 0.5 | O=C(O)c1cn(-c2ccc(CN3CCCC3)cc2)c2c(Cl)c(N3CCN(c4ccccn4)CC3)c(F)cc2c1=O [Example 1, 8-chloro-6-fluoro-4-oxo-7-(4-pyridin-2-yl-piperazin-1-yl)-1-[4-(pyrrolidin-1-ylmethyl)phenyl]-1,4-dihydroquinoline-3-carboxylic acid] |
| < 0.5 | COC[C@H]1CCCN1Cc1ccc(-n2cc(C(=O)O)c(=O)c3cc(F)c(N4CCN(c5ccccn5)CC4)c(Cl)c32)cc1 [Example 21, 8-chloro-6-fluoro-1-(4-{[(2R)-2-(methoxy-methyl)pyrrolidin-1-yl]methyl}phenyl)-4-oxo-7-(4-pyridin-2-ylpiperazin-1-yl)-1,4-dihydroquinoline-3-carboxylic acid] |
